For assay [1], the system named is Gram negative fermenting bacteria: Enterobacter gergoviae & Klebsiella species. Nature of the assay: Liquid broth checkerboard assay (MIC, ΣFIC synergy), Pool 2. It is filed as cell-based. The following applies: tryptic soy broth, 30° C., 24 hours, ΣFIC<1 synergistic. The text has this:
(§1) The differing behaviours of inhibitory antimicrobials in isolation and mixtures have been widely explored using the concept of the Fractional Concentration and Fractional Inhibitory Concentration (FIC). See for instance JRW Lambert and R Lambert, J. Appl. Microbiol 95, 734 (2003); T. Jadavji, CG Prober and R Cheung, Antimicrobial Agents and Chemotherapy 26, 91 (1984), and WO 2004/006876. These parameters can be defined as follows:
(§2) FC (component a)=Concentration of component a tested in the mixture/MIC (component a tested as a single active)
(§3) FIC (component a)=MIC (component a tested in the mixture)/MIC (component a tested as a single active)
(§4) The interactions between antimicrobials can be additive, synergistic or possibly antagonistic depending on whether the efficacy of the combination is equivalent to, greater than or less than that obtained for the same total concentration of the individual components when tested alone.
(§5) These relationships can be expressed mathematically by summing the fractional MIC values for all the components present in the mixture to give the “fractional inhibitory index”: ΣFIC=FIC(component 1)+FIC(component 2) Such that: ΣFIC≥1 corresponds to additive or antagonistic activity ΣFIC<1 corresponds to synergistic activity
(§6) Liquid broth assays (MIC and checkerboard) were conducted to identify the minimum concentration(s) of individual and binary combinations of preservation chemicals. A modified methodology to ISO 20776-1:2006 was utilised for the screening as follows. Stock solutions of preservation chemicals and tryptic soy broth were inoculated with 1-5×10^6 microorganisms and incubated at 30° C. for 24 hours, after which optical densities at OD600nm were measured. […] Preservation chemicals were screened at a concentration range of 0.0156-2%.

For assay [2], the system named is Gram negative non-fermenting bacteria: Pseudomonas aeruginosa, Pseudomonas putida & Burkholderia cepacia. Nature of the assay: Liquid broth checkerboard assay (MIC, ΣFIC synergy), Pool 1. It is filed as cell-based. The conditions noted are these: tryptic soy broth, 30° C., 24 hours, ΣFIC<1 synergistic.
Description: as §1, §2, §3, §4, §5, §6

Where [3] appears, read: binary combination with Citric Acid.
Setting [4] is: binary combination with Itaconic acid.

For the compound `CCCCc1ccc(O)cc1` [4-n-butyl phenol], the ΣFIC synergy score in assay [1] (setting [3]) is given as 0.59; in assay [1] (setting [4]), 0.50; in assay [2] (setting [3]), 0.50; in assay [2] (setting [4]), 0.44.
For the compound `CCOc1cc(C=O)ccc1O` [Ethylvanillin], the ΣFIC synergy score in assay [1] (setting [3]) was determined as 0.69; in assay [1] (setting [4]), 0.63; in assay [2] (setting [3]), 0.63; in assay [2] (setting [4]), 0.56.
Consider `C=CCc1ccc(O)c(OC)c1` [Eugenol], for which the ΣFIC synergy score in assay [1] (setting [3]) came out at 0.53; in assay [1] (setting [4]), 0.38; in assay [2] (setting [3]), 0.75; in assay [2] (setting [4]) it was 0.38.

The record behind these values is patent US11872296B2, “Preservation compositions” (Conopco, Inc., priority 2018, dated 2024).
